Laboratory results: publication PMC6383948, “Evaluation of a class of isatinoids identified from a high-throughput screen of human kinase inhibitors as anti-Sleeping Sickness agents” (PLoS Neglected Tropical Diseases, 2019)
Marks after values point to notes of the source that are not given here.

What was measured:
T. b. brucei = T. b. brucei growth inhibition EC50 assay (resazurin, 72 h); assay type: cell-based, Trypanosoma brucei brucei Lister 427; conditions: 72 h, resazurin, error within ±0.20 (Table 2) or ±0.08 (Table 3) log units; for EC50: Trypanosoma brucei, read-out: T.b.b. pEC50 (converted)
Protocol: Mid-log phase growth T. b. brucei was diluted to a working cell density of 2,750 cells/mL and 90 μL/well dispensed into 96-well flat-bottom transparent assay plates (Nunc). Ten μL/well from intermediate plates were added. The final top concentration of compounds was 40 μM in 0.4% DMSO per well.
Assay plates were incubated for 72 h at 37°C and 5% CO2. Four hours prior to the end of the incubation, 20 μL of a 440 μM resazurin solution in prewarmed HMI-9 was added to each well and incubated for another 4 h. Fluorescence was then measured in an Infinite F200 plate reader (Tecan) at 550 nm (excitation filter) and 590 nm (emission filter). A 4-parameter equation was employed to fit the dose-response curves and determine of EC50 using the SigmaPlot 13.0 software. Assays were performed in duplicate at least twice, to achieve a minimal n = 3 per dose response.
Bloodstream Trypanosoma brucei brucei Lister 427 was cultured in Hirumi’s modified Iscove’s medium (HMI-9), supplemented with 10% heat-inactivated FBS, at 37 °C and 5% CO2 in T-25 vented flask (Corning®).
For dose-response experiments, compound plates were prepared for each analogue by serial 3-fold dilutions in 100% DMSO. Five concentration points (mammalian cytotoxicity) or ten concentration points (parasite growth inhibition), were made in 96-well transparent Nunclon plates. Pentamidine is routinely included in compound plates as internal quality control, and plates are stored sealed at -20 °C for no more than four weeks.

MRC5-SV2 cell line = assay: Cytotoxicity assay in MRC5 (resazurin, 48 h); assay type: cell-based, human; conditions: MRC5 toxicity
Protocol: For dose-response experiments, compound plates were prepared for each analogue by serial 3-fold dilutions in 100% DMSO. Five concentration points (mammalian cytotoxicity) or ten concentration points (parasite growth inhibition), were made in 96-well transparent Nunclon plates. Pentamidine is routinely included in compound plates as internal quality control, and plates are stored sealed at -20 °C for no more than four weeks. Intermediate plates were made as described, adding 95 μL of DMEM complete media to 5 μL of compound per well setting a 5% DMSO amount. Log-phase MRC5 cells were removed from a T-75 TC flask using TrypLE® Express (Thermo®) and dispersed by gentle pipetting. Cell density was adjusted to working concentration in prewarmed DMEM medium: 25,000 cells in 90 μL of culture were plated in 96-well transparent Nunclon plates and let to settle for 24 h at 37 °C and 5% CO2. After settling incubation, 10 μL of fresh made intermediate plate were added per well: final maximal concentration for compounds was 50 μM in 0.5% DMSO per well. […] Fluorescence was read in an Infinite F200 plate reader (Tecan®) at 550 nm (excitation filter) and 590 nm (emission filter). A 4-parameter equation was used to fit the dose-response curves and determination of EC50 by SigmaPlot ® 13.0 software. Assays were performed in duplicate at least twice for positive compounds, to achieve a minimal n=3 per dose response.

[1] = Aqueous pH 7.4 solubility; assay type: physicochemical; conditions: aqueous buffer, thermodynamic from solid; pH 7.4 phosphate buffer, 25 °C, 20-24 h; read-out: Aq. Solubility
Protocol: Compounds are dried down from 10 mM DMSO solutions using centrifugal evaporation technique. Phosphate buffer (0.1 M pH 7.4) added and StirStix inserted in the glass vials, shaking is then performed at a constant temperature of 25 °C for 20-24 h. This step is followed by double centrifugation with a tip wash in between, to ensure that no residues of the dried compound are interfering. The solutions are diluted before analysis and quantification using LC/MS/MS is performed.

[2] = Shake-flask octanol-water Log D7.4; assay type: physicochemical; conditions: pH 7.4, octanol-water shake-flask
Protocol: Shake-flask octanol-water distribution coefficient at pH 7.4 (Log D7.4). The aqueous solution used is 10 mM sodium phosphate pH 7.4 buffer. The method has been validated for Log D7.4 ranging from -2 to 5.0.

[3] = Human plasma protein binding (equilibrium dialysis); assay type: in vitro ADME; conditions: pH 7.4, read-out: PPB (converted)
Protocol: PPB is determined using equilibrium dialysis (RED device) to separate free from bound compound. The amount of compound in plasma (10 µM initial concentration) and in dialysis buffer (pH 7.4 phosphate buffer) is measured by LC-MS/MS after equilibration at 37 °C in a dialysis chamber. The fraction unbound (fu) is reported.

T. cruzi = assay: β-D-Galactosidase transgenic T. cruzi assay (amastigote-infected L6 cells); assay type: cell-based, T. cruzi Tulahuen C4 strain; conditions: Trypanosoma cruzi, 96 h, read-out: T. cruzi pEC50 (converted)
Protocol: The T. cruzi Tulahuen C4 strain, expressing the β-galactosidase gene (LacZ) and L6 rat skeletal muscle cells, used as host cells, were cultured in RPMI-1640 supplemented with 10% iFBS, 2 mM L-glutamine, 100 U/mL penicillin, and 100 μg/mL streptomycin at 37 °C and 5% CO2.
A Thermo Scientific Multidrop Combi dispenser (MTX Lab Systems, Vienna, VA) was used to dispense 90 μL of T. cruzi amastigote–infected L6 cell culture (4×10^3 infected L6 cells per well) into 96-well Corning assay plates (Corning Inc., Corning, NY) already containing 10 μL of the compounds to be screened and controls. The plates were incubated at 37 °C for 96 h. Then, 30 μL of 100 μM CPRG and 0.1% NP40 diluted in PBS were added to each well, and the plates were incubated for 4 h at 37 °C in the dark. Absorbance at 585 nm was measured in a Vmax kinetic microplate reader ([…]). Compound activities were normalized using the in-plate negative (benznidazole at 10 μg/mL) and positive (0.2% DMSO) growth controls.

L. donovani = assay: EC50 in L. donovani (infected THP-1 macrophages, luciferase); assay type: cell-based, Leishmania donovani MHOM/ET/67/HU3; conditions: Leishmania donovani, 72 h, read-out: L. donovani pEC50 (converted)
Protocol: Leishmania donovani MHOM/ET/67/HU3 cells with the luciferase gene integrated into the parasite genome[1] were grown at 28 °C in RPMI 1640-modified medium (Invitrogen) supplemented with 20% FBS with […] of hygromycin B.
The Human myelomonocytic cell line THP-1 was grown at 37 °C and 5% CO2 in RPMI-1640 supplemented with 10% iFBS, 2 mM […], 100 U/mL penicillin and […] streptomycin. 3 x 10^4 THP-1 cells per well in 96-well plates were differentiated to macrophages with 20 ng/mL of PMA treatment for 48 h followed by 24 h of culture in fresh medium.
Macrophage-differentiated THP-1 cells were infected at a macrophage/parasite ratio of 1/10 with stationary L. donovani promastigotes for 24 h at 35 °C and 5% CO2, and extracellular parasites were removed by washing with PBS. Infected cell cultures were then incubated with different compounds concentrations at 37 °C for 72 h. Luminescence was measured using the Promega kit luciferase assay system (Promega, Madison, WI). Assays were performed in duplicate at least twice, to achieve a minimal n=3 per dose response.

[4] = system: S. mansoni adults and somules; assay: S. mansoni phenotypic assay, adults and somules (severity score); assay type: cell-based, Schistosoma mansoni (NMRI isolate); conditions: score 0-4; for Adult severity score (10 μM): adults; for Somule severity score (10 μM): somules
Protocol: Maintenance of the Schistosoma mansoni life cycle, preparation of somules (post-infective larvae) and adult worms (≥42-days-old), and co-incubation of these stages with test compounds were as described. An NMRI isolate of S. mansoni was used for all whole-organism screens.
Somules (40 units/well/96w round-bottomed plate) or adults (five paris/well/24w plate) were cultured in the presence of compounds at 10 µM and phenotypic changes observed as a function of time using an Zeiss Axiovert A1 inverted microscope (Table S4). A constrained nomenclature was used to describe the effects of compounds on parasites (changes in shape, motility and density). To generate a partially quantitative output for comparing drug effects, each descriptor was awarded a score of 1 and these were summed to a maximum score of 4 [7-10]: evidence of degeneracy or death was awarded the maximum score of 4. For adults specifically, damage to the tegument (outer surface) was also awarded a score of 4 based on the indication that damage to the patrasite’s surface is lethal in vivo [11]. Assays were performed twice and representative data are shown.

[5] = Human liver microsomal CLint; assay type: in vitro ADME; conditions: human, liver microsomes, read-out: HLM Clint
Protocol: In vitro intrinsic clearance determined from human liver microsomes using a standard approach. Following incubation and preparation, the samples are analyzed using LC/MS/MS.

COc1ccc(N/N=C2\C(=O)Nc3ccccc32)cc1 [NEU-2114, (Z)-3-(2-(4-Methoxyphenyl)hydrazono)indolin-2-one]
EC50 (T. b. brucei): 10 µM
MRC5 pTC50 (MRC5-SV2 cell line): <4.3
solubility [1]: < 7 µM
logD [2]: > 3.3
fraction unbound at 10 µM [3]: < 0.03
EC50 (T. cruzi): > 10 µM
EC50 (L. donovani): > 10 µM
Adult severity score (10 μM) ([4]; 3h): 0
Adult severity score (10 μM) ([4]; 6h): 0
Adult severity score (10 μM) ([4]; 24h): 0
Adult severity score (10 μM) ([4]; 48h): 0
Somule severity score (10 μM) ([4]; 24h): 2
Somule severity score (10 μM) ([4]; 48h): 0

NS(=O)(=O)c1ccc(N/N=C2\C(=O)Nc3ccccc32)cc1 [NEU-2115, (Z)-4-(2-(2-Oxoindolin-3-ylidene)hydrazinyl)benzenesulfonamide]
EC50 (T. b. brucei): 1.26 µM
MRC5 pTC50 (MRC5-SV2 cell line): <4.3
solubility [1]: < 8 µM
logD [2]: 2.3
microsomal CLint [5]: 20.4 µL/min/mg
fraction unbound at 10 µM [3]: 0.04
EC50 (T. cruzi): > 10 µM
EC50 (L. donovani): > 10 µM

O=C1Nc2ccccc2/C1=N/Nc1cc(Cl)cc(Cl)c1 [NEU-2117, (Z)-3-(2-(3,5-Dichlorophenyl)hydrazono)indolin-2-one]
EC50 (T. b. brucei): > 39.8 µM
MRC5 pTC50 (MRC5-SV2 cell line): <4.3
solubility [1]: < 3 µM
logD [2]: > 3.7
fraction unbound at 10 µM [3]: < 0.04
EC50 (T. cruzi): > 10 µM
EC50 (L. donovani): > 10 µM
Adult severity score (10 μM) ([4]; 3h): 1
Adult severity score (10 μM) ([4]; 6h): 0
Adult severity score (10 μM) ([4]; 24h): 0
Adult severity score (10 μM) ([4]; 48h): 3
Somule severity score (10 μM) ([4]; 24h): 0
Somule severity score (10 μM) ([4]; 48h): 0

NS(=O)(=O)c1ccc(N/N=C2\C(=O)Nc3ccc(Cl)cc32)cc1 [NEU-2319]
T.b.b. pEC50 (T. b. brucei): 6.0
MRC5 pTC50 (MRC5-SV2 cell line): <5.0^b

CC(C)=Cc1cccc2c1/C(=N/Nc1ccc(S(=O)(=O)N(C)C)cc1)C(=O)N2 [NEU-4405, (Z)-N,N-Dimethyl-4-(2-(4-(2-methylprop-1-en-1-yl)-2-oxoindolin-3-ylidene)hydrazinyl)benzenesulfonamide]
EC50 (T. b. brucei): 5.01 µM
MRC5 pTC50 (MRC5-SV2 cell line): <4.3
EC50 (T. cruzi): > 20 µM
EC50 (L. donovani): > 5.01 µM

CC(C)c1cc2c(c(Cl)c1O)/C(=N/Nc1ccc(S(N)(=O)=O)cc1)C(=O)N2 [NEU-5455]
T.b.b. pEC50 (T. b. brucei): 6.4
MRC5 pTC50 (MRC5-SV2 cell line): <5.0^b

Cc1ccc2c3c(ccc2n1)NC(=O)/C3=N\Nc1ccc(S(N)(=O)=O)cc1 [NEU-5456]
EC50 (T. b. brucei): 0.0398 µM
MRC5 pTC50 (MRC5-SV2 cell line): <5.0^b

NS(=O)(=O)c1ccc(NN=C2C(=O)Nc3cc4c(cc32)NCC4)cc1 [NEU-5459]
EC50 (T. b. brucei): 0.794 µM
MRC5 pTC50 (MRC5-SV2 cell line): <5.0^b

NC(=O)c1cccc2c1/C(=N/Nc1ccc(S(N)(=O)=O)cc1)C(=O)N2 [NEU-5460]
T.b.b. pEC50 (T. b. brucei): 6.2
MRC5 pTC50 (MRC5-SV2 cell line): <5.0^b

Cc1c(Cl)ccc2c1/C(=N/Nc1ccc(S(N)(=O)=O)cc1)C(=O)N2 [NEU-5464]
T.b.b. pEC50 (T. b. brucei): 7.3
MRC5 pTC50 (MRC5-SV2 cell line): <5.0^b

Cc1cc2c(c(C)c1O)/C(=N/Nc1ccc(S(N)(=O)=O)cc1)C(=O)N2 [NEU-5469]
T.b.b. pEC50 (T. b. brucei): 8.2
MRC5 pTC50 (MRC5-SV2 cell line): <5.0^b

CCc1ccc2c(c1)NC(=O)/C2=N\Nc1ccc(S(N)(=O)=O)cc1 [NEU-5470]
T.b.b. pEC50 (T. b. brucei): 6.1
MRC5 pTC50 (MRC5-SV2 cell line): <5.0^b

Cc1ccc2c(c1C)/C(=N/Nc1ccc(S(N)(=O)=O)cc1)C(=O)N2 [NEU-5479]
T.b.b. pEC50 (T. b. brucei): 6.9
MRC5 pTC50 (MRC5-SV2 cell line): <5.0^b

Cc1cc2c(c(Cl)c1O)/C(=N/Nc1ccc(S(N)(=O)=O)cc1)C(=O)N2 [NEU-5485]
T.b.b. pEC50 (T. b. brucei): 7.1
MRC5 pTC50 (MRC5-SV2 cell line): <5.0^b

CC(C)Cc1cccc2c1/C(=N/Nc1ccc(S(N)(=O)=O)cc1)C(=O)N2 [NEU-5487]
T.b.b. pEC50 (T. b. brucei): 7.4
MRC5 pTC50 (MRC5-SV2 cell line): <5.0^b

CCc1cccc2c1/C(=N/Nc1ccc(S(N)(=O)=O)cc1)C(=O)N2 [NEU-5489]
T.b.b. pEC50 (T. b. brucei): 7.5
MRC5 pTC50 (MRC5-SV2 cell line): <5.0^b

CC(C)c1cccc2c1/C(=N/Nc1ccc(S(N)(=O)=O)cc1)C(=O)N2 [NEU-5491]
T.b.b. pEC50 (T. b. brucei): 7.6
MRC5 pTC50 (MRC5-SV2 cell line): <5.0^b

NS(=O)(=O)c1ccc(N/N=C2\C(=O)Nc3cccc(CC4CCC4)c32)cc1 [NEU-5492]
T.b.b. pEC50 (T. b. brucei): 6.9
MRC5 pTC50 (MRC5-SV2 cell line): <5.0^b

NS(=O)(=O)c1ccc(N/N=C2\C(=O)Nc3cccc(CCc4ccc(O)cc4)c32)cc1 [NEU-5493]
T.b.b. pEC50 (T. b. brucei): 6.0
